Results taken from ChEMBL document CHEMBL3813616, “Discovery of novel 7-azaindoles as PDK1 inhibitors” (Bioorg Med Chem Lett, 2016).

Assays:
[1] = target: Aurora kinase B (Homo sapiens) (UniProt Q96GD4); test: Inhibition of human Aurora B (1 to 344 residues) assessed as enzyme activity at 1 uM using 33P ATP by radioactive filter binding assay; parameters: scale not given: the % may be the effect or the level left
[2] = target: Casein kinase II (Homo sapiens) (UniProt P67870+P68400+P19784); test: Inhibition of human CK2 assessed as enzyme activity at 1 uM using 33P ATP by radioactive filter binding assay; assay type: protein-complex assay; parameters: scale not given: the % may be the effect or the level left
[3] = target: T1, 3-phosphoinositide-dependent protein kinase 1 (Homo sapiens, UniProt O15530); test: Inhibition of human His6-tagged PDK1 using biotinylated PDKtide as substrate after 60 mins by topcount method
T1 sequence (O15530 whole entry): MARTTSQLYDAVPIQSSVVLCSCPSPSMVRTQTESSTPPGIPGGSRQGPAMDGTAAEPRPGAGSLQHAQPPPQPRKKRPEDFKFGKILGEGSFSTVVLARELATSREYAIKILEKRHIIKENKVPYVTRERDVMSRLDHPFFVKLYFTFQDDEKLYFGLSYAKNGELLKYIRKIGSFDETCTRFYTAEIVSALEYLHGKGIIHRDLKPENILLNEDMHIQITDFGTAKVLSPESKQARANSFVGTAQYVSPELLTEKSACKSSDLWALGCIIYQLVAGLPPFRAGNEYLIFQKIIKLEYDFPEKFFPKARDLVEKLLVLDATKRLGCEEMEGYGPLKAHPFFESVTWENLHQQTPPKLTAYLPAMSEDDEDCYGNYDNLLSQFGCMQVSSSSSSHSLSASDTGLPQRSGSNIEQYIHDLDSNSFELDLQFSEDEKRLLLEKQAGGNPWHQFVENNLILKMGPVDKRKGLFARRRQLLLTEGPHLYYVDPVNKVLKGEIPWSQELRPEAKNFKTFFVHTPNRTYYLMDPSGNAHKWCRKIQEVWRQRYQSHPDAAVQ

[4] = target: Ribosomal protein S6 kinase beta-1 (Homo sapiens) (UniProt P23443); test: Inhibition of human S6K1 (1 to 421 residues) assessed as enzyme activity at 1 uM using 33P ATP by radioactive filter binding assay; parameters: scale not given: the % may be the effect or the level left
[5] = target: Mitogen-activated protein kinase 1 (Homo sapiens) (UniProt P28482); test: Inhibition of human MAPK2 (2 to 360 residues) assessed as enzyme activity at 1 uM using 33P ATP by radioactive filter binding assay; parameters: scale not given: the % may be the effect or the level left
[6] = target: Mitogen-activated protein kinase 3 (Homo sapiens) (UniProt P27361); test: Inhibition of human MAPK3 (2 to 544 residues) assessed as enzyme activity at 1 uM using 33P ATP by radioactive filter binding assay; parameters: scale not given: the % may be the effect or the level left
[7] = target: Ribosomal protein S6 kinase alpha-1 (Homo sapiens) (UniProt Q15418); test: Inhibition of human MAPKAPK1alpha (1 to 735 residues) assessed as enzyme activity at 1 uM using 33P ATP by radioactive filter binding assay; parameters: scale not given: the % may be the effect or the level left
[8] = target: Rho-associated protein kinase 2 (Rattus norvegicus) (UniProt Q62868); test: Inhibition of rat ROCK2 (2 to 543 residues) assessed as enzyme activity at 1 uM using 33P ATP by radioactive filter binding assay; parameters: scale not given: the % may be the effect or the level left
[9] = target: Myosin light chain kinase, smooth muscle (Homo sapiens) (UniProt Q15746); test: Inhibition of human smMLCK (475 to 838 residues) assessed as enzyme activity at 1 uM using 33P ATP by radioactive filter binding assay; parameters: scale not given: the % may be the effect or the level left
[10] = target: Protein kinase C alpha type (Homo sapiens) (UniProt P17252); test: Inhibition of human PKCalpha (1 to 672 residues) assessed as enzyme activity at 1 uM using 33P ATP by radioactive filter binding assay; parameters: scale not given: the % may be the effect or the level left
[11] = target: Tyrosine-protein kinase Lck (Homo sapiens) (UniProt P06239); test: Inhibition of human LCK (2 to 509 residues) assessed as enzyme activity at 1 uM using 33P ATP by radioactive filter binding assay; parameters: scale not given: the % may be the effect or the level left
[12] = target: Ribosomal protein S6 kinase alpha-3 (Homo sapiens) (UniProt P51812); test: Inhibition of human MAPKAPK1beta assessed as enzyme activity at 1 uM using 33P ATP by radioactive filter binding assay; parameters: scale not given: the % may be the effect or the level left
[13] = target: cAMP-dependent protein kinase catalytic subunit alpha (Homo sapiens) (UniProt P17612); test: Inhibition of human PKA alpha (2 to 351 residues) assessed as enzyme activity at 1 uM using 33P ATP by radioactive filter binding assay; parameters: scale not given: the % may be the effect or the level left
[14] = target: T2, Eukaryotic elongation factor 2 kinase (Homo sapiens) (UniProt O00418); test: Inhibition of human EF2K (2 to 725 residues) assessed as enzyme activity at 1 uM using 33P ATP by radioactive filter binding assay; parameters: scale not given: the % may be the effect or the level left
T2 sequence (whole entry): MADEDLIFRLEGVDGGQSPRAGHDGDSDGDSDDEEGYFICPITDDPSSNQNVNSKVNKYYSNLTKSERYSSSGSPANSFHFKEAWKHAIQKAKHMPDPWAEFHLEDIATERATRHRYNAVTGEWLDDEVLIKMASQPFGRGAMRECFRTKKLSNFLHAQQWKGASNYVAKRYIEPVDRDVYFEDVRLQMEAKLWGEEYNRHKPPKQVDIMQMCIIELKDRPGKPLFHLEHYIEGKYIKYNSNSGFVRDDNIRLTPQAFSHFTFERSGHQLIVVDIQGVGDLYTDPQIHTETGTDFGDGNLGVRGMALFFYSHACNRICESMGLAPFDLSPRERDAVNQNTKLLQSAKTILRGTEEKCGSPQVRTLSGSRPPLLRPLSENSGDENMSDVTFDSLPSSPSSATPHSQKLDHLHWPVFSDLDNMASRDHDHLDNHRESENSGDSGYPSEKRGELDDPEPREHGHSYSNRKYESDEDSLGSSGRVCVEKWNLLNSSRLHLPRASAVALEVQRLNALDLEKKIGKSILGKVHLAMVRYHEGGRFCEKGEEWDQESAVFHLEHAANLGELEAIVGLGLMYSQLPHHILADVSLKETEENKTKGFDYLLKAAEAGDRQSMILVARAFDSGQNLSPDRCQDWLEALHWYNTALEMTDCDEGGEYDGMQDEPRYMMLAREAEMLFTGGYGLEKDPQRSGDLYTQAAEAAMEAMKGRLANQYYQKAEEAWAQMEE

[15] = target: Calcium/calmodulin-dependent protein kinase kinase 2 (Homo sapiens) (UniProt Q96RR4); test: Inhibition of human CAMKKb (1 to 541 residues) assessed as enzyme activity at 1 uM using 33P ATP by radioactive filter binding assay; parameters: scale not given: the % may be the effect or the level left
Sequence of Calcium/calmodulin-dependent protein kinase kinase 2 (Homo sapiens) (Q96RR4 2-588 limits assumed): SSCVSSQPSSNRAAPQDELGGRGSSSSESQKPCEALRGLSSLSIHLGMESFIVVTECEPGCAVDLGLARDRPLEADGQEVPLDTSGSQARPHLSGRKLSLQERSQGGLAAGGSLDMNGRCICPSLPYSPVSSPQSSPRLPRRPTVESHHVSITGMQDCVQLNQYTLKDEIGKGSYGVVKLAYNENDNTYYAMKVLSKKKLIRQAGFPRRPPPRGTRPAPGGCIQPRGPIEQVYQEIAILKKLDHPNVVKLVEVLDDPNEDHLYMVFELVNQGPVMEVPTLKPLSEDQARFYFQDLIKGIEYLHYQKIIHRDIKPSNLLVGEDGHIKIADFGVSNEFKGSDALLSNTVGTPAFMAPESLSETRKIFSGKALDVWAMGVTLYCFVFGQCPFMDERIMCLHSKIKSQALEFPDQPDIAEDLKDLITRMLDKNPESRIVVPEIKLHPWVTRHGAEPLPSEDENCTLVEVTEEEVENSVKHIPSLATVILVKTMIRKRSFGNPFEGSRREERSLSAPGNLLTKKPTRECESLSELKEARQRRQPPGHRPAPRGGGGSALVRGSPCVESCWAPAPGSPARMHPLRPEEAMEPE

Sequence of Mitogen-activated protein kinase 1 (Homo sapiens) (P28482 whole entry, the tested form may be a part): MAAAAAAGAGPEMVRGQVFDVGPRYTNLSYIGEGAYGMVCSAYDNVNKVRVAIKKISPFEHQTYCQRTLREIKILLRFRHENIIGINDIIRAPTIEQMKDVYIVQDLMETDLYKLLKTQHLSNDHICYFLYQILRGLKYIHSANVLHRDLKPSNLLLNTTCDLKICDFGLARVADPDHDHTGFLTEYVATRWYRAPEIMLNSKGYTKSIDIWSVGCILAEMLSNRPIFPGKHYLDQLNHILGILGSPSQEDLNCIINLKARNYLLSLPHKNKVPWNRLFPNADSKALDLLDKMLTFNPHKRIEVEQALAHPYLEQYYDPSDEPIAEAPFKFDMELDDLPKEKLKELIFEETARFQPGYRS
Sequence of Ribosomal protein S6 kinase beta-1 (Homo sapiens) (P23443 whole entry, looked up, the tested form may be a part): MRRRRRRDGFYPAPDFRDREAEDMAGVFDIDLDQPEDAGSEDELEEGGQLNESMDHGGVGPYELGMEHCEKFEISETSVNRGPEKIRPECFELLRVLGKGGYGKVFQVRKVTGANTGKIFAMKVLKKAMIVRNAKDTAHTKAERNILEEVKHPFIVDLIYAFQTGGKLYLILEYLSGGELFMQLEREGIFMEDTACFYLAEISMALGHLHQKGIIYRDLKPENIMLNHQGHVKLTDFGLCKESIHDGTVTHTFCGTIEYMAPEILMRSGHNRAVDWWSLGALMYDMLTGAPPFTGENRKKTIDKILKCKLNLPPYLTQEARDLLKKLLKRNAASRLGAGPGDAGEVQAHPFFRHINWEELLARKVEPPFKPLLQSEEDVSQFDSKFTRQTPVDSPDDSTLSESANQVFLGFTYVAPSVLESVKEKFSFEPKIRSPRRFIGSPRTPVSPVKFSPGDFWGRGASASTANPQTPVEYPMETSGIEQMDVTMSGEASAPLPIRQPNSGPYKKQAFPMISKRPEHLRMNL
Sequence of Mitogen-activated protein kinase 3 (Homo sapiens) (P27361 whole entry, the tested form may be a part): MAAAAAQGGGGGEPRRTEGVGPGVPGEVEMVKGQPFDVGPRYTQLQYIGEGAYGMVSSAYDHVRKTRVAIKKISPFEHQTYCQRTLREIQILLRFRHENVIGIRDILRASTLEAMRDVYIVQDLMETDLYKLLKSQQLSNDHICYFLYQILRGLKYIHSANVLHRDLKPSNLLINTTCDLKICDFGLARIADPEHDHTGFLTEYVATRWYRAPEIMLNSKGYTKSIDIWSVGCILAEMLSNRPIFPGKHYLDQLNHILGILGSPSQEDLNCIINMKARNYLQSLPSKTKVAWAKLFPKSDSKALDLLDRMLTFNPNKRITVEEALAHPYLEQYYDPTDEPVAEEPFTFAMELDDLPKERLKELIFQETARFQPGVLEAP
Sequence of Rho-associated protein kinase 2 (Rattus norvegicus) (Q62868 whole entry, looked up, the tested form may be a part): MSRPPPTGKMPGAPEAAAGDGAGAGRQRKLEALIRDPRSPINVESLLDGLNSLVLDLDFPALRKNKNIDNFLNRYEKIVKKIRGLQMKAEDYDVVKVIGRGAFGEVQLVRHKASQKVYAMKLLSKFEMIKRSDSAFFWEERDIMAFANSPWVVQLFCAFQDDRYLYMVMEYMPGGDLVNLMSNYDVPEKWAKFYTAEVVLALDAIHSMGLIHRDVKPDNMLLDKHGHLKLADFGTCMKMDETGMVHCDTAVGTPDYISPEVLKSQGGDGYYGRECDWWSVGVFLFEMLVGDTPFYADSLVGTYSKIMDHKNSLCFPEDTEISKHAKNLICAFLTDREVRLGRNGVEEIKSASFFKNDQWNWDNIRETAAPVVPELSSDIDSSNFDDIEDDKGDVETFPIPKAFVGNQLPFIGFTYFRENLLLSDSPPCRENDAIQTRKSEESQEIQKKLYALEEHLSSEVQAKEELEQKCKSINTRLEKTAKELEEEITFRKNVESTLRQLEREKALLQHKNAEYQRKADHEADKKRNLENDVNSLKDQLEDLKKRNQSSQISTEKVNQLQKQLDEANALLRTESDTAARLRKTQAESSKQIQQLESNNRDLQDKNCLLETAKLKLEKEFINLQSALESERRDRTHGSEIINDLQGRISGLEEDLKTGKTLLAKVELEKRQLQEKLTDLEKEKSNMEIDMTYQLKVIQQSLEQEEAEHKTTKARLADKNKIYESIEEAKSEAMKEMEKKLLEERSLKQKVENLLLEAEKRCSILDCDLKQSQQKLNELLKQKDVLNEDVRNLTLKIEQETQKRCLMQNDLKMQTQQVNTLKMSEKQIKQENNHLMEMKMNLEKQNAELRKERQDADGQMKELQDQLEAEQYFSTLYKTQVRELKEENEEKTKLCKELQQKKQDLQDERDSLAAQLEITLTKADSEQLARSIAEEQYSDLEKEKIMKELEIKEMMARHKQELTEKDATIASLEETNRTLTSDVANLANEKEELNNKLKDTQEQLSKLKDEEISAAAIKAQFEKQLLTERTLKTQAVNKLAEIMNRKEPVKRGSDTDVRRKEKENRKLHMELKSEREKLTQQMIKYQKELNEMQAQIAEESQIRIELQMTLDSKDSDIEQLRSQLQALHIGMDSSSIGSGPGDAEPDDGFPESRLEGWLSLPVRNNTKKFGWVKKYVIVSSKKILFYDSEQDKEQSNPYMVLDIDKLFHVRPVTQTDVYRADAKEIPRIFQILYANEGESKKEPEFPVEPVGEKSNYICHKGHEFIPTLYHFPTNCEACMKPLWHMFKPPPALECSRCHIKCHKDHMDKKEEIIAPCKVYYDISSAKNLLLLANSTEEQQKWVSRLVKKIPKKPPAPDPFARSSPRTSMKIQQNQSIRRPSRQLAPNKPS
Sequence of Tyrosine-protein kinase Lck (Homo sapiens) (P06239 2-509 limits assumed): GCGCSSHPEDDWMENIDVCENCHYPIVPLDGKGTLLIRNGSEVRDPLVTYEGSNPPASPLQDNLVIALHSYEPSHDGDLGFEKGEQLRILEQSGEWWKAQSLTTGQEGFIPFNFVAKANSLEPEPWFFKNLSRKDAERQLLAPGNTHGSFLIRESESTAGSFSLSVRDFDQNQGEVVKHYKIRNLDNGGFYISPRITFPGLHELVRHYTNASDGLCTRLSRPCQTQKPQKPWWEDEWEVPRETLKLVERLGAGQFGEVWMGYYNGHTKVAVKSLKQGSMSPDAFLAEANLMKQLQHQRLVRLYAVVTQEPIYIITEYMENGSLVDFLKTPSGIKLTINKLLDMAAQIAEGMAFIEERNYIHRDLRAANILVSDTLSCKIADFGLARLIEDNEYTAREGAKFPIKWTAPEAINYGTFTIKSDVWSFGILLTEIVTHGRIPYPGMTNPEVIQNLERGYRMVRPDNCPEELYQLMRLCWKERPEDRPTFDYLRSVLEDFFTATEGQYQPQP
Sequence of Aurora kinase B (Homo sapiens) (Q96GD4 whole entry, the tested form may be a part): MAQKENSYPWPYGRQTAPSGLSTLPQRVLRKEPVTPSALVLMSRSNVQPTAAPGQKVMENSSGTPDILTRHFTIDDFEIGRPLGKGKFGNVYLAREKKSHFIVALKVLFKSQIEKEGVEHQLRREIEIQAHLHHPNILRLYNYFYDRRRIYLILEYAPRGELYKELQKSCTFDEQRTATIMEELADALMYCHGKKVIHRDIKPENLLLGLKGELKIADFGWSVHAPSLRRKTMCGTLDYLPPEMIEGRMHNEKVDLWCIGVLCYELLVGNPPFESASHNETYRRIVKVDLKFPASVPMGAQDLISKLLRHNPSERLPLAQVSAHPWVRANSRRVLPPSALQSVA

| SMILES | Activity [1] [%] | Activity [2] [%] | IC50 [3] [nM] | Activity [4] [%] | Activity [5] [%] | Activity [6] [%] | Activity [7] [%] | Activity [8] [%] | Activity [9] [%] | Activity [10] [%] | Activity [11] [%] | Activity [12] [%] | Activity [13] [%] | Activity [14] [%] | Activity [15] [%] |
| --- | --- | --- | --- | --- | --- | --- | --- | --- | --- | --- | --- | --- | --- | --- | --- |
| CCCCc1cc(-c2c[nH]c3ncc(-c4cnn(C5CCNCC5)c4)cc23)nc(N)n1 | -62 | 0 | 84 | -84 | -30 | -97 | -88 | -80 | -72 | -55 | -99 | -92 | -42 | -31 | -86 |
| CCCCc1cc(-c2c[nH]c3ncccc23)nc(N)n1 | -16 | 14 | 1100 | -77 | -9 | -54 | -56 | -93 | -10 | -18 | -5 | -17 | -54 | -1 | -2 |
| CCc1cc(-c2c[nH]c3ncc(-c4cnn(C5CCNCC5)c4)cc23)nc(N)n1 | – | -10 | 58 | -66 | -32 | -95 | -86 | -65 | -40 | -73 | -95 | -71 | -38 | 3 | -58 |
| Nc1nccc(-c2c[nH]c3ncccc23)n1 [MERIOLIN 1] | -31 | -22 | 5900 | -71 | -21 | -77 | -82 | -97 | -35 | -28 | -9 | -46 | -66 | -20 | -31 |
